Test results as given in PubChem BioAssay (NCI).
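Results reflect a 48-hour exposure of cells in 96-well plates to compound at five concentrations. GI50: concentration for 50% inhibition of growth. TGI marks complete inhibition of growth.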

Key:
Assay in all cases: DTP human tumour cell line panel, 48 h
HOP-92 NSCLC = tested on: HOP-92 NSCLC
EKVX NSCLC = tested on: EKVX NSCLC
SK-MEL-5 melanoma = tested on: SK-MEL-5 melanoma
K-562 leukemia = tested on: K-562 leukemia
COLO 205 colon = tested on: COLO 205 colon
NCI-H460 lung = tested on: NCI-H460 lung
ACHN renal = tested on: ACHN renal
SN12C renal = tested on: SN12C renal
DU-145 prostate = tested on: DU-145 prostate
NCI/ADR-RES ovarian = tested on: NCI/ADR-RES ovarian
CCRF-CEM leukemia = tested on: CCRF-CEM leukemia
BT-549 breast = tested on: BT-549 breast
SK-OV-3 ovarian = tested on: SK-OV-3 ovarian
SNB-75 CNS = tested on: SNB-75 CNS
A498 renal = tested on: A498 renal
OVCAR-5 ovarian = tested on: OVCAR-5 ovarian
SK-MEL-2 melanoma = tested on: SK-MEL-2 melanoma
HL-60(TB) leukemia = tested on: HL-60(TB) leukemia
MOLT-4 leukemia = tested on: MOLT-4 leukemia
MCF7 breast = tested on: MCF7 breast
TK-10 renal = tested on: TK-10 renal
SF-268 CNS = tested on: SF-268 CNS
SF-539 CNS = tested on: SF-539 CNS
HT29 colon = tested on: HT29 colon
SR leukemia = tested on: SR leukemia
CAKI-1 renal = tested on: CAKI-1 renal
786-0 renal = tested on: 786-0 renal
UO-31 renal = tested on: UO-31 renal
HOP-62 NSCLC = tested on: HOP-62 NSCLC
SW-620 colon = tested on: SW-620 colon
NCI-H522 lung = tested on: NCI-H522 lung
MDA-MB-231 breast = tested on: MDA-MB-231 breast
RPMI-8226 leukemia = tested on: RPMI-8226 leukemia
OVCAR-3 ovarian = tested on: OVCAR-3 ovarian
MDA-MB-435 = tested on: MDA-MB-435
M14 melanoma = tested on: M14 melanoma
UACC-62 melanoma = tested on: UACC-62 melanoma
SF-295 CNS = tested on: SF-295 CNS
HCT-116 colon = tested on: HCT-116 colon
SK-MEL-28 melanoma = tested on: SK-MEL-28 melanoma
MALME-3M melanoma = tested on: MALME-3M melanoma
T-47D breast = tested on: T-47D breast
IGROV1 ovarian = tested on: IGROV1 ovarian
NCI-H23 lung = tested on: NCI-H23 lung
UACC-257 melanoma = tested on: UACC-257 melanoma
PC-3 prostate = tested on: PC-3 prostate
KM12 colon = tested on: KM12 colon
RXF 393 renal = tested on: RXF 393 renal
HCT-15 colon = tested on: HCT-15 colon
HCC-2998 colon = tested on: HCC-2998 colon
A549 NSCLC = tested on: A549 NSCLC
NCI-H226 lung = tested on: NCI-H226 lung
SNB-19 CNS = tested on: SNB-19 CNS
LOX IMVI melanoma = tested on: LOX IMVI melanoma
OVCAR-4 ovarian = tested on: OVCAR-4 ovarian
HS 578T breast = tested on: HS 578T breast
U251 CNS = tested on: U251 CNS
OVCAR-8 ovarian = tested on: OVCAR-8 ovarian

Nc1ncc(-c2ccc3ncnc(N4CCc5cc(F)c(Cl)cc54)c3c2)cc1CO
GI50 (HOP-92 NSCLC): 115 nM | TGI (HOP-92 NSCLC): 1530 nM | GI50 (EKVX NSCLC): 259 nM | TGI (EKVX NSCLC): 1930 nM | GI50 (SK-MEL-5 melanoma): 838 nM | TGI (SK-MEL-5 melanoma): 2200 nM | GI50 (K-562 leukemia): 887 nM | TGI (K-562 leukemia): > 23200 nM | GI50 (COLO 205 colon): 1170 nM | TGI (COLO 205 colon): 2820 nM | GI50 (NCI-H460 lung): 413 nM | TGI (NCI-H460 lung): 3560 nM | GI50 (ACHN renal): 365 nM | TGI (ACHN renal): 20500 nM | GI50 (SN12C renal): 435 nM | TGI (SN12C renal): 11200 nM | GI50 (DU-145 prostate): 619 nM | TGI (DU-145 prostate): > 41800 nM | GI50 (NCI/ADR-RES ovarian): 1660 nM | TGI (NCI/ADR-RES ovarian): 9100 nM | GI50 (CCRF-CEM leukemia): 1580 nM | TGI (CCRF-CEM leukemia): 11200 nM | GI50 (BT-549 breast): 321 nM | TGI (BT-549 breast): 2050 nM | GI50 (SK-OV-3 ovarian): 451 nM | TGI (SK-OV-3 ovarian): 2820 nM | GI50 (SNB-75 CNS): 50.6 nM | TGI (SNB-75 CNS): 1110 nM | GI50 (A498 renal): 110 nM | TGI (A498 renal): 611 nM | GI50 (OVCAR-5 ovarian): 422 nM | TGI (OVCAR-5 ovarian): 12100 nM | GI50 (SK-MEL-2 melanoma): 1090 nM | TGI (SK-MEL-2 melanoma): 2890 nM | GI50 (HL-60(TB) leukemia): 1070 nM | TGI (HL-60(TB) leukemia): 4500 nM | GI50 (MOLT-4 leukemia): 525 nM | TGI (MOLT-4 leukemia): 4720 nM | GI50 (MCF7 breast): 210 nM | TGI (MCF7 breast): 2520 nM | GI50 (TK-10 renal): 231 nM | TGI (TK-10 renal): 2030 nM | GI50 (SF-268 CNS): 663 nM | TGI (SF-268 CNS): 7890 nM | GI50 (SF-539 CNS): 1270 nM | TGI (SF-539 CNS): 4450 nM | GI50 (HT29 colon): 950 nM | TGI (HT29 colon): 10200 nM | GI50 (SR leukemia): 475 nM | TGI (SR leukemia): 4660 nM | GI50 (CAKI-1 renal): 282 nM | TGI (CAKI-1 renal): 3760 nM | GI50 (786-0 renal): 474 nM | TGI (786-0 renal): 5000 nM | GI50 (UO-31 renal): 154 nM | TGI (UO-31 renal): 5000 nM | GI50 (HOP-62 NSCLC): 776 nM | TGI (HOP-62 NSCLC): 5120 nM | GI50 (SW-620 colon): 1640 nM | TGI (SW-620 colon): 9480 nM | GI50 (NCI-H522 lung): 419 nM | TGI (NCI-H522 lung): 3020 nM | GI50 (MDA-MB-231 breast): 697 nM | TGI (MDA-MB-231 breast): 6540 nM | GI50 (RPMI-8226 leukemia): 395 nM | TGI (RPMI-8226 leukemia): 3720 nM | GI50 (OVCAR-3 ovarian): 468 nM | TGI (OVCAR-3 ovarian): 4840 nM | GI50 (MDA-MB-435): 418 nM | TGI (MDA-MB-435): 1990 nM | GI50 (M14 melanoma): 543 nM | TGI (M14 melanoma): 3900 nM | GI50 (UACC-62 melanoma): 266 nM | TGI (UACC-62 melanoma): 1610 nM | GI50 (SF-295 CNS): 453 nM | TGI (SF-295 CNS): 3170 nM | GI50 (HCT-116 colon): 1260 nM | TGI (HCT-116 colon): 5020 nM | GI50 (SK-MEL-28 melanoma): 393 nM | TGI (SK-MEL-28 melanoma): 5210 nM | GI50 (MALME-3M melanoma): 186 nM | TGI (MALME-3M melanoma): 1420 nM | GI50 (T-47D breast): 169 nM | TGI (T-47D breast): 936 nM | GI50 (IGROV1 ovarian): 178 nM | TGI (IGROV1 ovarian): 724 nM | GI50 (NCI-H23 lung): 803 nM | TGI (NCI-H23 lung): 3720 nM | GI50 (UACC-257 melanoma): 644 nM | TGI (UACC-257 melanoma): 4310 nM | GI50 (PC-3 prostate): 343 nM | TGI (PC-3 prostate): 25100 nM | GI50 (KM12 colon): 1650 nM | TGI (KM12 colon): 8230 nM | GI50 (RXF 393 renal): 318 nM | TGI (RXF 393 renal): 1170 nM | GI50 (HCT-15 colon): 798 nM | TGI (HCT-15 colon): 5250 nM | GI50 (HCC-2998 colon): 1200 nM | TGI (HCC-2998 colon): 5120 nM | GI50 (A549 NSCLC): 522 nM | TGI (A549 NSCLC): 3210 nM | GI50 (NCI-H226 lung): 570 nM | TGI (NCI-H226 lung): 9140 nM | GI50 (SNB-19 CNS): 1430 nM | TGI (SNB-19 CNS): 12900 nM | GI50 (LOX IMVI melanoma): 747 nM | TGI (LOX IMVI melanoma): 3940 nM | GI50 (OVCAR-4 ovarian): 615 nM | TGI (OVCAR-4 ovarian): 5230 nM | GI50 (HS 578T breast): 404 nM | TGI (HS 578T breast): 2940 nM | GI50 (U251 CNS): 1430 nM | TGI (U251 CNS): 7950 nM | GI50 (OVCAR-8 ovarian): 883 nM | TGI (OVCAR-8 ovarian): 10400 nM
